Measurements: patent publication US20030087753A1, “System for microbial control of a fluid” (priority 2001, published 2003)

Assays:
[1] = system: Staphylococcus aureus (ATCC 6538); assay: Growth inhibition of Staphylococcus aureus by m-cresol adsorbed on zeolite USY (Eur. Pharm. efficacy of antimicrobial preservation); assay type: cell-based; details: 5 mg m-cresol/ml dissolved in water, positive control
Experimental: This example illustrates growth inhibition of Staphylococcus aureus (ATCC 6538), FU ml-1) after incubation with m-cresol adsorbed on zeolite. Test according to Eur. Pharm. nd Ed. VIII 14 (1992). Efficacy of antimicrobial preservation.
Ultra-stable zeolite Y (USY, 63-125 μm particles) was incubated with m-cresol […] after which the zeolite was sucked dry and further dried in warm closet overnight. Zeolite with adsorbed m-cresol was then suspended in PBS and was incubated with Staphylococcus aureus at 37° C. The concentration of m-cresol in the solution after the suspension of zeolite was 0.14 mg/ml.

[2] = Adsorption and release of various antibiotics on ultra-stable zeolite Y (USY); assay type: physicochemical; details: for Amount antibiotic in 20 mg zeolite/ml: USY suspended to 20 mg/ml; for Release concentration of antibiotic: dried USY suspended to 20 mg/ml in buffer; for Amount adsorbed antibiotic/mg zeolite: ultra-stable zeolite Y (USY), amount calculated
Experimental: This example illustrates adsorption and release of various antibiotics. Ultra-stable zeolite Y (USY) was incubated with various antibiotics and the amounts absorbed to the zeolite were calculated. Then the zeolite was dried and suspended to 20 mg/ml in buffer and the concentrations of released antibiotics in the solutions were determined.

[3] = Release of cephalothin from ultra-stable zeolite Y (USY) at pH 2.5 and pH 8.0; assay type: physicochemical; details: 20 mg/ml USY; 10 mM phosphate buffer pH 8.0 after 10 mM glycin pH 2.5
Experimental: This example illustrates release of cephalothin from ultra-stable zeolite Y (USY) and is described with reference to the diagram in FIG. 10.
Ultra-stable zeolite Y (USY) was incubated with the antibiotic cephalothin 5 mg/ml after which the zeolite was sucked dry and further dried in warm closet. Zeolite with adsorbed cephalothin was suspended repeatedly to 20 mg/ml in 10 mM glycin pH 2.5 (▪) and the concentration of cephalothin in the solutions was determined by absorbency measurement at 260 nm. Then the zeolite was suspended in 10 mM phosphate buffer pH 8.0 (●).

Row | Molecule | Amount antibiotic in 20 mg zeolite/ml [2] | Release concentration of antibiotic [2] | Amount adsorbed antibiotic/mg zeolite [2] | also measured
1 | Cc1cccc(O)c1 [Free m-cresol, m-cresol] | – | – | – | CFU/ml ([1]; incubation time 0 h): 5.9 × 10^6 CFU/ml; CFU/ml ([1]; incubation time 2 h): 1.2 × 10^2 CFU/ml; CFU/ml ([1]; incubation time 4 h): 24 CFU/ml; CFU/ml ([1]; incubation time 8 h): 3 CFU/ml; CFU/ml ([1]; incubation time 24 h): 0 CFU/ml; CFU/ml ([1]; incubation time 48 h): 0 CFU/ml
2 | CC1(C)S[C@@H]2[C@H](NC(=O)[C@H](N)c3ccccc3)C(=O)N2[C@H]1C(=O)O [Ampicilin] | 2.8 mg/mL | 400 µg/mL | 0.14 mg | –
3 | CC(=O)OCC1=C(C(=O)O)N2C(=O)[C@@H](NC(=O)Cc3cccs3)[C@H]2SC1 [Cephalothin] | 4.2 mg/mL | 4.6 µg/mL | 0.21 mg | release of cephalothin from the zeolite on change of pH [3]: increased release
4 | CN(C)[C@@H]1C(=O)C(C(N)=O)=C(O)[C@@]2(O)C(=O)C3=C(O)c4c(O)cccc4[C@@](C)(O)[C@H]3C[C@@H]12 [Tetracyclin] | 1.8 mg/mL | 220 µg/mL | 0.09 mg | –
5 | [H]/N=C(/N)N[C@H]1[C@H](O)[C@@H](O)[C@H](O[C@@H]2O[C@@H](C)[C@](O)(C=O)[C@H]2O[C@@H]2O[C@@H](CO)[C@H](O)[C@@H](O)[C@@H]2NC)[C@@H](N/C(N)=N\[H])[C@@H]1O [Streptomycin] | 9.6 mg/mL | 4800 µg/mL | 0.48 mg | –
6 | Gentamycin | 3.6 mg/mL | – | 0.18 mg | –
7 | O=C(N[C@H](CO)[C@H](O)c1ccc([N+](=O)[O-])cc1)C(Cl)Cl [Chloramphemicol] | 2.5 mg/mL | 7 µg/mL | 0.125 mg | –
